Results on 7 compounds are retold here after patent US12129237B2, “Substituted diaminocarboxamide and diaminocarbonitrile pyrimidines, compositions thereof, and methods of treatment therewith” (SIGNAL PHARMACEUTICALS, LLC, priority 2011, dated 2024).

This experiment addresses T1, JNK1 (Homo sapiens, UniProt P45983).
T1 construct: purchased Carna Biosciences
In words: JNK1 biochemical assays (one or more of: time resolved fluorescence, Z'-LYTE Cascade, radioactive).

Setting [1] is: tested in one or more of the JNK1 biochemical assays, read-out: Act. Level (JNK1 biochemical assay IC50 activity level).
Where [2] appears, read: one or more of the JNK1 biochemical assays, read-out: Act. Level (JNK1 IC50 activity level).

Each structure is given as a SMILES string. Like-named read-outs stand apart in the source and are kept apart here.

T1 sequence (P45983 whole entry): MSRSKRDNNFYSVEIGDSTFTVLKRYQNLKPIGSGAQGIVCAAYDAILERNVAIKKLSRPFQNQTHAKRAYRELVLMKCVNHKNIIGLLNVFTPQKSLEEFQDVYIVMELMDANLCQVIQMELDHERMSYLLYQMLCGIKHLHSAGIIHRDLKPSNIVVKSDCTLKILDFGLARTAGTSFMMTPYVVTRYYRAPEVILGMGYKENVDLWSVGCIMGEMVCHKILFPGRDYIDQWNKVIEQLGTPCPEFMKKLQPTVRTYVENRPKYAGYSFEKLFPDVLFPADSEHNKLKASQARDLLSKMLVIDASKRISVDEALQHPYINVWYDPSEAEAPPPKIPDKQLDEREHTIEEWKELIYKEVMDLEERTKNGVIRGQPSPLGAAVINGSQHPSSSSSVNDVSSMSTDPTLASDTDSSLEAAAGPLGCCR

For `CCO[C@H]1CC[C@H](Nc2ncc(C#N)c(N[C@H]3CCOC3)n2)CC1` [Example C-37, 2-((1r,4S)-4-ethoxycyclohexylamino)-4-((S)-tetrahydrofuran-3-ylamino)pyrimidine-5-carbonitrile], the IC50 (Table 3, JNK1 IC50 activity level, read-out: Act. Level) is 200 to 800 nM. Regarding `CNC(=O)[C@H]1CC[C@H](Nc2ncc(C(N)=O)c(N[C@@H]3CCC[C@H](O)C3)n2)CC1` [Example A-56, 4-((1R,3S)-3-hydroxycyclohexylamino)-2-((1r,4R)-4-(methylcarbamoyl)cyclohexylamino)pyrimidine-5-carboxamide], the IC50 under setting [1] was below 200 nM. Consider `CC(C)CCNc1nc(N[C@H]2CC[C@H](O)CC2)ncc1C(N)=O` [Example 220, 2-((1r,4r)-4-hydroxycyclohexylamino)-4-(isopentylamino)pyrimidine-5-carboxamide], for which the IC50 under setting [2] was below 200 nM. For the compound `C[C@@H]1CC[C@@H](Nc2nc(N[C@H]3CC[C@H](OC4CC4)CC3)ncc2C(N)=O)C[C@H]1O` [Example 492, 2-((1r,4R)-4-cyclopropoxycyclohexylamino)-4-((1R,3R,4R)-3-hydroxy-4-methylcyclohexylamino)pyrimidine-5-carboxamide], under setting [2], the IC50 is below 200 nM. For the compound `CC(C)[C@@H](C)Nc1nc(N[C@H]2CC[C@H](O)CC2)ncc1C(N)=O` [Example 292, 2-((1r,4R)-4-hydroxycyclohexylamino)-4-((R)-3-methylbutan-2-ylamino)pyrimidine-5-carboxamide], the IC50 under setting [2] was below 200 nM. As for `CC(=O)N[C@H]1CC[C@H](Nc2ncc(C(N)=O)c(Nc3ccccc3)n2)CC1` [Example B-6, 2-((1r,4r)-4-acetamidocyclohexylamino)-4-(phenylamino)pyrimidine-5-carboxamide], under “Table 2, JNK1 IC50 activity level, read-out: Act. Level”, the IC50 is below 200 nM. For `CO[C@H]1CC[C@H](Nc2ncc(C(N)=O)c(N[C@@H]3CCCC[C@](C)(O)C3)n2)CC1` [Example A-183, 4-((1R,3S)-3-hydroxy-3-methylcycloheptylamino)-2-((1r,4R)-4-methoxycyclohexylamino)pyrimidine-5-carboxamide], the IC50 under setting [1] is below 200 nM.
